Results reported in patent US11648255B2, “Inhibitors for treatment of hematological malignancies” (Masarykova Univerzita, priority 2020, dated 2023).

Experiments:
[1] = system: primary CLL cells; assay: Ca2+ flux (Fluo-4AM, flow cytometry) after SDF1 stimulation; format: cell-based, human; conditions: 25 μM inhibitor 6 hours, SDF1 100 μg/ml
Description: Primary CLL cells (5×10^6/ml) were treated with 25 μM GAB1-001 inhibitor (inhGAB1-001) or GAB1-004 inhibitor (inhGAB1-004) for 6 hours (culture conditions are described in the Material and Method section). These inhibitors were obtained from MD Anderson, USA (Lu Chen et al., PLoS Comput Biol. 2015; 11(1): e1004021.). Control cells were treated with an equal volume of DMSO also for 6 hours. After that were these cells incubated in Hanks Balanced Salt Solution (HBSS, catalog number: H6648, Sigma Aldrich) containing […] Fluo-4AM (catalog number: F14201, Thermo Fisher Scientific) for 30 minutes at 37° C. in the dark. The cells were subsequently prepared for analysis according to instructions provided by the manufacturer of Fluo-4AM. The malignant B cells were subsequently analyzed by flow cytometry (BD FACS Verse, BD Biosciences). Samples were acquired for 60 seconds without stimulation. After that the cells were immediately stimulated by SDF1 100 μg/ml (catalog number: 300-28A, Peprotech). […] To calculate the response to SDF1, we established a baseline fluorescence threshold for each sample (by acquiring samples for 60 seconds without any stimulus). We then calculated the peak Fluo-4AM signal and the percentage of cells with fluorescence intensity above baseline Fluo-4AM signal following stimulation addition.

[2] = system: primary CLL cells; assay: viability by DiOC6/PI staining, flow cytometry; format: cell-based; conditions: Homo sapiens, CLL cell, 48 hours, DMSO control 55.67
Description: To see the effect of GAB1 inhibitors on malignant B cell viability we treated 5×10^6/ml of primary CLL cells with different doses (10, 25 or 50 μM) of GAB1-001 inhibitor (inhGAB1-001) or GAB1-004 inhibitor (inhGAB1-004) for 48 hours. These inhibitors were obtained from MD Anderson, USA (Lu Chen et al., PLoS Comput Biol. 2015; 11(1): e1004021.). Control cells were treated with an equal volume of DMSO also for 48 hours (culture conditions are described in the Material and Method section). After that, the cells were stained with DiOC6/PI (3,3′-dihexyloxacarbocyanine iodide together with propidium iodide; catalog numbers: D273 and P3566; both were obtained from Thermo Fisher Scientific). Cells were stained and analyzed according to manufacturer protocol. The analysis was performed using BD FACS Verse flow cytometer (BD Biosciences).

[3] = system: MEC1 cells; assay: viability by DiOC6/PI staining, ibrutinib and/or GAB1 inhibitors; format: cell-based; conditions: ibrutinib 1 μM six days, then GAB1 inhibitors 25 μM 48 hours, DMSO control 85.20
Description: Cells were cultivated for six days (see Material and Method section) and ibrutinib or DMSO were supplemented each second day. […] After that were cells harvested and stained for viability using DiOC6/PI (3,3′-dihexyloxacarbocyanine iodide together with propidium iodide (catalog numbers: D273 and P3566; both were obtained from Thermo Fisher Scientific). Cells were stained and analyzed according to manufacturer protocol. The analysis was performed using BD FACS Verse flow cytometer (BD Biosciences).

[4] = system: primary CLL cells; assay: competitive migration assay (transwell) after inhibitor treatment; format: cell-based, human; conditions: GAB1 inhibitors 50 μM, ibrutinib 1 μM, 12 hours, migration towards conditioned media (50%) 6 hours, control set to 1
Description: HS5 cells (3.5×10^6) were seeded in T75 cultivation flask (TPP) in 12 ml of Dulbecco's Modified Eagle's Medium media (DMEM, catalog number: D6429, Sigma-Aldrich). The next day was original media discarded, the cells attached to the bottom of the flask were washed once with 10 ml of PBS (catalog number: 5493; Sigma Aldrich). Subsequently, the 25 ml of RPMI-1640 (catalog number: R8758, Sigma-Aldrich) media was added to the attached HS5 cells. After 48 hours was this conditioned media collected, purified from cell-debris by 10 minutes centrifugation at 2000 RCF and subsequently diluted with fresh RPMI-1640 media (catalog number: R8758, Sigma-Aldrich) containing 10% FBS (catalog number: FB-1350; Biosera) and 5% penicillin/streptomycin (catalog number: P4333; Sigma Aldrich) to final concentration 50% conditioned media. This media was immediately used for experiments.
To compare the migration, the stained cells (control cells plus one treated variant) were mixed in ratio 1:1 and loaded in transwell inserts (24 well insert, 8 μm pore size; Falcon, Corning) according to manufacturer protocol. […] The ratio of migrated inhibitor-treated cells was calculated by dividing of the percentage of migrated inhibitor-treated cells by percentage of migrated control cells.

[5] = system: JEKO (Mantle cell lymphoma); assay: viability by DiOC6/PI staining, ibrutinib and/or GAB1 inhibitors; format: cell-based; conditions: ibrutinib 1 μM six days, then GAB1 inhibitors 25 μM 48 hours, DMSO control 76.64
Description: (§1) Cells were cultivated for six days (see Material and Method section) and ibrutinib or DMSO were supplemented each second day. […] The analysis was performed using BD FACS Verse flow cytometer (BD Biosciences).

[6] = system: ML2 (Acute myeloid leukemia); assay: as above; format: cell-based; conditions: ibrutinib 1 μM six days, then GAB1 inhibitors 25 μM 48 hours, DMSO control 76.92
Description: as §1

[7] = system: OciLy5 (Small lymphocytic leukemia); assay: as above; format: cell-based; conditions: ibrutinib 1 μM six days, then GAB1 inhibitors 25 μM 48 hours, DMSO control 81.47
Description: as §1

[8] = system: DOHH2 (GC-DLBCL); assay: viability by DiOC6/PI staining, GAB1 inhibitors; format: cell-based; conditions: Homo sapiens, DOHH-2, 48 hours, DMSO control 81.84
Description: (§2) In a further experiment, 2.5×10^6/ml of RAMOS (derived from Burkitt's lymphoma) or DOHH2 (derived from diffuse large B cell lymphoma) or GRANTA (derived from […]) or WSU-NHL (derived from follicular lymphoma) cells was treated with treated with two different GAB inhibitors (inhGAB1-001 and inhGAB1-004; provided by MD Anderson, USA (Lu Chen et al., PLoS Comput Biol. 2015; 11(1): e1004021.) at final concentration 25 μM, or with an equal volume of vehicle (DMSO) for 48 hours. After that, cells were harvested and stained for viability using DiOC6/PI (3,3′-dihexyloxacarbocyanine iodide together with propidium iodide; catalog numbers: D273 and P3566; both were obtained from Thermo Fisher Scientific). Cells were stained and analyzed according to manufacturer protocol. The analysis was performed using BD FACS Verse flow cytometer (BD Biosciences).

[9] = system: GRANTA (Acute lymphoblastic leukemia); assay: viability by DiOC6/PI staining, GAB1 inhibitors; format: cell-based; conditions: 48 hours, DMSO control 87.24
Description: as §2

[10] = system: RAMOS (Burkitt's lymphoma); assay: viability by DiOC6/PI staining, GAB1 inhibitors; format: cell-based; conditions: Homo sapiens, 48 hours, DMSO control 95.01
Description: as §2

[11] = system: WSU-NHL (Follicular lymphoma); assay: viability by DiOC6/PI staining, GAB1 inhibitors; format: cell-based; conditions: Homo sapiens, 48 hours, DMSO control 87.34
Description: as §2

[12] = system: phospho-GAB1 Y307 in primary CLL cells; assay: immunoblot of GAB1 phosphorylation after stimulation with SDF1 or conditioned media, with or without plerixafor; format: cell-based, human
Description: Samples were sonicated 2×10 seconds, amplitude 60% (type: UP100H; Hielscher). […] Electrophoresis was conducted using Biorad Miniprotean system (Biorad) according to manufacturer protocol (voltage: 60-110 V, electrophoresis buffer: 25 mM TRIS, 250 mM glycine, […], pH 8.2; all reagents were obtained from Sigma Aldrich; catalog numbers: L3771, T6066, H1758, G8898). Proteins were subsequently transferred to the PVDF membrane (0.45 μm pore size, Millipore) using Biorad Miniprotean system (Biorad) according to manufacturer protocol (blot buffer: 20% methanol, 192 mM glycine, 25 mM TRIS; all reagents were obtained from Sigma Aldrich; catalog numbers: 34860, T6066, H1758, G8898).
HS5 cells (3.5×10^6) were seeded in T75 cultivation flask (TPP) in 12 ml of Dulbecco's Modified Eagle's Medium media (DMEM, catalog number: D6429, Sigma-Aldrich). The next day was original media discarded, the cells attached to the bottom of the flask were washed once with 10 ml of PBS (catalog number: 5493; Sigma Aldrich). Subsequently, the 25 ml of RPMI-1640 (catalog number: R8758, Sigma-Aldrich) media was added to the attached HS5 cells. […] This media was immediately used for experiments.
Primary CLL cells (5×10^6/ml) were cultured as described in Material and Method section. […]

## O=S(=O)(NCc1csc2ccc(Cl)cc12)c1cc(S(=O)(=O)c2ccccc2)cs1 [inhGAB1-001]
[1]
  Ca2+ flux after treatment with SDF1 (FIG. 2G): decreases the Ca^2+ flux
[2]
  viability at 10 µM: 52.8%
  viability at 25 µM: 50.3%
  viability at 50 µM: 31%
[3]
  % of viability: 67.00%
[4]
  Ratio of migrated cells: 0.79
[5]
  % of viability: 2.88%
[6]
  % of viability: 6.86%
[7]
  % of viability: 53.12%
[8]
  viability at 25 µM: 51.9%
[9]
  viability at 25 µM: 4.49%
[10]
  viability at 25 µM: 50.3%
[11]
  viability at 25 µM: 29.4%

## c1cc(CN2CCCNCCNCCCNCC2)ccc1CN1CCCNCCNCCCNCC1 [plerixafor]
[12]; plerixafor 5 μg/ml 8 hours, 50% conditioned media 5 minutes
  GAB1 phosphorylation on conditioned media in the presence of plerixafor (FIG. 1A): also led to GAB1 phosphorylation

## C=CC(=O)N1CCC[C@@H](n2nc(-c3ccc(Oc4ccccc4)cc3)c3c(N)ncnc32)C1 [ibrutinib]
[3]
  % of viability: 81.66%
[5]
  % of viability: 60.14%
[6]
  % of viability: 68.93%
[7]
  % of viability: 80.33%

## SDF1: Stromal cell-derived factor 1, chemokine ligand used as stimulus
[12]; SDF1 100 ng/ml, 5 minutes
  GAB1 phosphorylation on stimulation (FIG. 1A): phosphorylation and thus activation of GAB1 protein

## O=c1[nH]nc(SCc2csc(-c3ccccc3)n2)n1Cc1ccco1 [inhGAB1-004]
[1]
  Ca2+ flux after treatment with SDF1 (FIG. 2G): decreases the Ca^2+ flux
[2]
  viability at 10 µM: 44.7%
  viability at 25 µM: 42.6%
  viability at 50 µM: 37.4%
[3]
  % of viability: 74.52%
[4]
  Ratio of migrated cells: 0.75
[5]
  % of viability: 49.20%
[6]
  % of viability: 28.07%
[7]
  % of viability: 62.46%
[8]
  viability at 25 µM: 72.3%
[9]
  viability at 25 µM: 74.1%
[10]
  viability at 25 µM: 74.6%
[11]
  viability at 25 µM: 70.2%
